The values below come from US10100077B2, “6-aryl-9-glycosylpurines and use thereof” (UNIVERZITA PALACKEHO V OLOMOUCI, priority 2014, dated 2018).

For series [1], the system named is Vaccinia virus, strain IHD. As to conditions: cited from earlier work.
The test system of series [2] is skin fibroblasts BJ and keratinocytes HaCaT. The experiment in a line: MTT in vitro cytotoxicity test for skin cells. As to conditions: Homo sapiens; MTT, 72 hour treatment, BJ and HaCaT, maximal concentration 50 microM. It counts as cell-based. The procedure:
MTT assay is a standard test of toxicity based on photometric measurement of the ability of metabolically active cells to reduce MTT (3-(4,5-dimethylthiazol-2-yl)-2,5-diphenyltetrazolium bromide). Using the assay, the effects of 72 hour treatments with several concentrations of the compounds (sixfold dilution, maximal concentration=50 microM) on viability of skin fibroblasts BJ and keratinocytes HaCaT were evaluated. About 5,000 cells were seeded per well of a 96-well plate 24 hours before the treatment. DMSO vehiculum was used as a negative control. After 72 hour treatment, new medium with MTT (Sigma, M2128) was added to a final concentration of 0.5 mg/ml. After 3 hours, medium was removed and resulting formazan in the cells was dissolved in DMSO. The absorbance was measured at 570 nm (640 nm reference wavelength). The IC50 values were calculated from the dose-response curves. 6-Benzylaminopurine riboside and 6-furfurylaminopurine riboside were used as positive controls they were toxic in the MTT test.

The test system is the same in series [3]. The experiment in a line: SRB in vitro toxicity test. It counts as cell-based. As to conditions: Homo sapiens, 72 hour treatment, maximal concentration 50 microM. The procedure: SRB (sulforhodamine B) assay is a standard toxicity test based on a photometric measurement of the cellular protein content after the staining with sulphorhodamine B. Using the assay, the effects of 72 hour treatments with several concentrations of the compounds (sixfold dilution, maximal concentration=50 microM) on viability of skin fibroblasts BJ and keratinocytes HaCaT were evaluated. About 5,000 cells were seeded per well of a 96-well plate 24 hours before the treatment. DMSO vehiculum was used as a negative non-toxic control. 6-benzylaminopurine riboside a 6-furfurylaminopurin riboside were used as positive toxic controls. After three days the medium was removed and the cells fixed with 10% (wt/vol) trichloroacetic acid. After the extensive washing in distilled water, 0.4% (wt/vol) solution of SRB in acetic acid was added and the fixed cells were stained for 30 minutes. The unbound stain was washed away by distilled water and the bound SRB was solubilized in unbuffered 10 mM Tris base. Absorbance was measured at 564 nm. IC50 values were calculated from dose-response curves.

Another series has as its system BJ skin fibroblasts. Kind of series: One-step growth curve. It counts as cell-based. Particulars: 12.5 to 100 μM, counted on 7th and 14th day. The procedure: The experiments were performed with BJ skin fibroblasts in 24-well tissue culture plates. About 10,000 cells in culture medium comprising DMEM with 10% FBS were seeded into the individual wells. The cells were allowed to attach for 24 hourse. The test compound was added to final concentrations in a range from 12.5 to 100 μM. DMSO vehiculum was also tested. In order to control for variability, two plate columns (A, D) were treated with DMSO vehiculum. The culture medium with the test chemicals or DMSO vehiculum was changed twice a week. Following trypsinization, the numbers of cells in 4 wells for each concentration were counted using Coulter counter on 7th and 14th day.

Series [4] can be described thus: Calcein AM cytotoxicity assay, MCF-7. It counts as cell-based. As to conditions: human, MCF-7 breast cancer cells. The source says: (§1) One of the parameters used as the base for cytotoxic analysis is metabolic activity of viable cells, such as microtiter assay, which uses the Calcein AM, is now widely used to quantitate cell proliferation and cytotoxicity. The quantity of reduced Calcein AM corresponds to the number of viable cells in culture. The cell lines of breast cancer (MCF-7), mousse fibroblasts (NIH3T3), human erythromleukemia (K562) were used for routine screening of cytotoxicity of the compounds. The cells were maintened in Nunc/Corning 80 cm^2 plastic bottles and grown in media for cell culture (DMEM containing 5 g/l of glucose, 2 mM of glutamin, 100 U/ml of penicilin, […] of streptomycin, 10% of fetal bovine serum and sodium hydrogencarbonate). Cell suspensions were diluted according to cell types and according to expected final cell density (10^4 of cells per well according to characteristics of cell growth), pipetted 80 μl of cell suspension on 96-well microtiter plates. Innoculates were stabilized by 24 hrs preincubation at 37° C. in CO2. Particular concentrations of tested compounds were added in time zero as 20 μl aliquotto wells of microtiter plates. Usually, the compounds were diluted into six concentrations in four-fold dilution series. In routine testing, the highest well concentration was 166.7 μM, of change dependent on the substance. All drug concentrations were examined in duplicates. The incubation of cells with tested derivatives lasted 72 hrs at 37° C., 100% humidity and in the atmosphere of CO2. At the end of the incubation period, the cells were tested and analysed according to the addition of Calcein AM (Molecular probes) solution and the incubation lasted for next 1 hour. Fluorescence (FD) was measured using Labsystem FIA reader Fluorskan Ascent (Microsystems). The survival of tumor cells (The tumor cell survival-TCS) was counted according to equation: […]=(FDwell with derivative/FDcontrol well)×100%. The value of GI50, that is equal to the concentration of compound at which 50% of tumour cells are terminated. To evaluate the antitumor activity was tested toxicity of new derivatives on panel of cell lines of different histogenetic and species origin (Tab. 7, G150 concentration given in μM). […] Effective derivatives killed tumor cells in concentrations close to 0.1 to 50. None of the newly prepared compounds only reached the value.

Series [5] in a line: Calcein AM cytotoxicity assay, K562. It counts as cell-based, human. As to conditions: human, K562 erythroleukemia cells.
Description: as §1

Series [6] is described as follows: Calcein AM cytotoxicity assay, NIH3T3. As to conditions: mouse, NIH3T3 fibroblasts. It is filed as cell-based, mouse.
Description: as §1

Series [7] concerns Vaccinia virus and Herpes simplex virus. Particulars: cited from earlier work.
In series [8] the test system is EpiDERM 3D model of epidermis. Kind of series: In vitro test of skin irritation in EpiDERM. It counts as cell-based. The protocol: EpiDERM™ is a 3D model of epidermis manufactured by Mattek company. The effects of tested substances are evaluated by MTT. 2 solutions (2 application forms) of the compounds 6-furfurylamino-9-β-D-arabinofuranosylpurine and 6-(3-methoxybenzylamino)-9-β-D-arabinofuranosylpurine in concentrations 1 mM a 200 microM in 0.5% DMSO/99.5% PBS were evaluated according to a standard protocol “INVITRO EpiDerm™ SKIN IRRITATION TEST”. After a preincubation of the tissues, 30 microliters of the application form solution were applied on the individual tissues. The exposition time was 60 minutes. Three tissues were used for each tested concentration as well as for controls. Following washing out of the applied solution, the tissues were incubated for 42 hour in order to allow a reparation of possible damage. In the next step, the tissue was incubated with MTT for 3 hours. The resulting formazan was extracted to isopropanol. Relative viability of the individual tissues was calculated as a percentage of viability of the average of the negative controls. Average viability of the tissues treated with 1 mM solution of the test substance was 99.3% for the compound 6-(3-methoxybenzylamino)-9-β-D-arabinofuranosylpurine and 98.0% for the compound 6-(furfurylamino)-9-β-D-arabinofuranosylpurine where 100% is an average viability of the tissues treated with the solvent only. None of the tested compounds in any of the concentrations caused any tissue damage or irritation. The compounds were evaluated as non-irritant in the tested concentrations.

In series [9] the test system is detached leaf segments of Triticum aestivum cv. Hereward. The experiment in a line: Senescence bioassay on wheat leaf segments (chlorophyll retention). As to conditions: chlorophyll retention at maximum effective concentration, 96 h dark. The procedure: Seeds of winter wheat, Triticum aestivum cv. Hereward, were washed under running water for 24 hours and then sown on vermiculite soaked with Knop's solution. They were placed in the growth chamber at 25° C. with a 16/8 h light period at 50 μmol·m^−2·s^−1. After 7 days, the first leaf was fully developed and the second leaf had started to grow. A tip section of the first leaf, approximately 35 mm long, was removed from 5 seedlings and trimmed slightly to a combined weight of 100 mg. The basal ends of the five leaf tips were placed in the wells of a microtiter polystyrene plate containing 150 μL, of the tested derivative solution each. The entire plate was inserted into a plastic box lined with paper tissues soaked in distilled water to prevent leaf sections from drying out. After 96 h incubation in the dark at 25° C., the leaves were removed and chlorophyll extracted by heating at 80° C. for 10 min in 5 mL of 80% ethanol (v/v). The sample volume was then restored to 5 mL by the addition of 80% ethanol (v/v). The absorbance of the extract was recorded at 665 nm. In addition, chlorophyll extracts from fresh leaves and leaf tips incubated in deionised water were measured. The results are means of five replicates and the entire test was repeated twice. […] The compounds to be tested were dissolved in dimethylsulfoxide (DMSO) and the solution brought up to 10^−3M with distilled water. This stock solution was further diluted with the respective media used for the biotest to a concentration ranging from 10^−8M to 10^−4M. […] The activity obtained for 10^−4 M of BAP was postulated as 100%.

Some results are limits rather than exact numbers.

With `Cc1ccc(CNc2ncnc3c2ncn3C2OC(CO)C(O)C2O)c(C)c1` (centres unmarked) [2,4-dimethylbenzyl], in series [1], the “activity against Vaccinia virus, strain IHD” value is “low activity”.

As for `Cc1ccc(C)c(CNc2ncnc3c2ncn3C2OC(CO)C(O)C2O)c1` (centres unmarked) [2,5-dimethylbenzyl], the “activity against Vaccinia virus, strain IHD” value in [1] was “low activity”.

For the molecule `OC[C@H]1O[C@@H](n2cnc3c(NCc4ccccc4)ncnc32)[C@@H](O)[C@@H]1O` [6-benzylamino-9-β-D-arabinofuranosylpurine], the half-maximal inhibitory concentration (IC50) in [2] and in [3] was over 50 µM in each case. Also, the “influence on cell viability (cell numbers, growth curve)” value in the series with BJ skin fibroblasts is “did not have a negative influence on cell viability”. Besides, the GI50 at 72 h in series [4], in series [5] and in [6] was over 100 µM throughout. The “activity in killing Vaccinia virus and Herpes simplex virus” value in [7] is reported as “No effect”.

Regarding `OC[C@H]1O[C@@H](n2cnc3c(NCc4ccco4)ncnc32)[C@@H](O)[C@@H]1O` [6-furfurylamino-9-β-D-arabinofuranosylpurine], the IC50 in [2] and in series [3] was over 50 µM throughout. The skin irritation evaluation entry in series [8] (1 mM and 200 microM in 0.5% DMSO/99.5% PBS) was “non-irritant”. Also, in [8] (1 mM solution, 60 minutes exposition, 100% = solvent only), the “Average viability of the tissues” value was determined as 98.0%. The “activity (%) [10^−4 mol · l^−1 BAP = 100%]” value in [9] is given as 193 ± 1%. Also, the GI50 at 72 h in series [4], in series [5] and in series [6] was over 100 µM in each case.
